Assays:
[1] = molecular target: T1, hsst1 (Homo sapiens, UniProt P30872); experiment: Somatostatin receptor radioligand binding assay, hsst1
T1 construct: expressed in transfected cells
Protocol: Specificity and selectivity of the somatostatin analogues used to synthesize the somatostatin-dopamine chimers were determined by a radioligand binding assay on CHO-K1 cells stably transfected with each of the SSTR subtypes, as follows. Somatostatin analogs are also described in U.S. Patent Application Publication No. 02210006790. The complete coding sequences of genomic fragments of the SSTR 1 (e.g., Genbank accession No. M81829), SSTR 2 (e.g., Genbank accession No. M81830), SSTR 3 (e.g., Genbank accession No. L07062), and SSTR 4 (e.g., Genbank accession No. AL049651) genes and a cDNA clone for SSTR 5 (e.g., Genbank accession No. D16827) was subcloned into the mammalian expression vector pCMV (Life Technologies, Milano, Italy). Other SSTR sequences are known to the skilled artisan. Clonal cell lines stably expressing SSTR's 1-5 were obtained by transfection into CHO-K1 cells (ATCC, Manassas, Va., USA) using the calcium phosphate co-precipitation method (Davis L, et al., 1994 In: Basic methods in Molecular Biology, 2nd edition, Appleton & Lange, Norwalk, Conn., USA: 611-646). The plasmid pRSV-neo (ATCC) was included as a selectable marker. Clonal cell lines were selected in RPMI 1640 media containing 0.5 mg/mL of G418 (Life Technologies, Milano, Italy), ring cloned, and expanded into culture.
Membranes for in vitro receptor binding assays were obtained by homogenizing the CHO-K1 cells expressing the SSTR's subtypes in ice-cold 50 mM Tris-HCl and centrifuging twice at 39,000 g (10 min), with an intermediate resuspension in fresh buffer. The final pellets were resuspended in 10 mM Tris-HCl for assay.
For the SSTR 1, 3, 4, and 5 assays, aliquots of the membrane preparations were incubated 90 minutes at 25° C. with 0.05 nM [^125I-Tyr11]SS-14 in 50 mM HEPES (pH 7.4) containing 10 mg/mL BSA, 5 mM MgCl2, 200 KIU/mL Trasylol, 0.02 mg/mL bacitracin, and 0.02 mg/mL phenylmethylsuphonyl fluoride. The final assay volume was 0.3 mL.
For the SSTR 2 assay, 0.05 nM [^125I]MK-678 was employed as the radioligand and the incubation time was 90 minutes at 25° C. The incubations were terminated by rapid filtration through GF/C glass microfiber filters (Whatman Co.) (pre-soaked in 0.3% polyethylenimine) using a BRANDEL filtration manifold. Each tube and filter was washed three times with 5 mL aliquots of ice-cold buffer. Specific binding was defined as the total radioligand bound minus that bound in the presence of 1000 nM SS-14 for SSTR 1, 3, 4, and 5, or 1000 nM MK-678 for SSTR2.
Using the discussed assays, the inhibition constants (Ki) for the five human somatostatin receptors (hSSTR1-hSSTR5) and the dopamine-2 receptor (hUTII and hDA2) were measured for the exemplified somatostatin-dopamine conjugates, as follows: […]

[2] = molecular target: T2, hsst2 (Homo sapiens, UniProt P30874); experiment: Somatostatin receptor radioligand binding assay, hsst2; details: CHO-K1 membranes, [125I]MK-678; read-out: hsst2 Ki
T2 construct: expressed in transfected cells
How it was run: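 Membranes from CHO-K1 cells stably expressing human SSTR2, in 10 mM Tris-HCl, incubated 90 min at 25 °C with 0.05 nM [125I]MK-678. Bound ligand collected by filtration on PEI-soaked GF/C filters; nonspecific binding defined with 1000 nM MK-678.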

[3] = molecular target: T3, sst2-D2 (Homo sapiens, UniProt P14416+P30874); experiment: cAMP Responsive Element-Luciferase reporter gene assay, sst2-D2 co-transfected HEK-293 cells; assay type: cell-based; details: read-out: IC50 value of cAMP inhibition
T3 construct: expressed in transfected cells; host or cells: HEK-293, transient co-transfection
Protocol: (§1) A cAMP Responsive Element-Luciferase reporter gene assay in HEK-293 cells was used in this assay, wherein said HEK-293 cells were transiently transfected with D2 and/or sst2 cDNA. […] In sst2-monotransfected cells, the IC50 value of cAMP inhibition of Example 1 was 0.04 nM.

[4] = molecular target: T4, D2 (Homo sapiens, UniProt P14416); experiment: cAMP Responsive Element-Luciferase reporter gene assay, D2-monotransfected HEK-293 cells; assay type: cell-based; details: read-out: IC50 value of cAMP inhibition
T4 construct: expressed in transfected cells; host or cells: HEK-293, transient
Protocol: as §1

[5] = molecular target: T5, hsst3 (Homo sapiens, UniProt P32745); experiment: Somatostatin receptor radioligand binding assay, hsst3
T5 construct: expressed in transfected cells
How it was run: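 Membranes from CHO-K1 cells stably transfected with each human SSTR subtype, incubated 90 min at 25 °C with 0.05 nM [125I-Tyr11]SS-14 in 50 mM HEPES pH 7.4 with BSA, MgCl2 and protease inhibitors; filtration read-out. Nonspecific binding with 1000 nM SS-14; Ki values reported.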

[6] = molecular target: T6, hsst5 (Homo sapiens, UniProt P35346); experiment: Somatostatin receptor radioligand binding assay, hsst5; details: hsst5 Ki, CHO-K1 membranes, [125I-Tyr11]SS-14
T6 construct: expressed in transfected cells
How it was run: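 Membranes from CHO-K1 cells stably expressing hsst5, incubated 90 min at 25 °C with 0.05 nM [125I-Tyr11]SS-14 in 50 mM HEPES pH 7.4 with BSA, MgCl2 and protease inhibitors. Bound ligand collected by filtration. Non-specific binding defined with 1000 nM SS-14.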

T6 sequence (P35346 whole entry): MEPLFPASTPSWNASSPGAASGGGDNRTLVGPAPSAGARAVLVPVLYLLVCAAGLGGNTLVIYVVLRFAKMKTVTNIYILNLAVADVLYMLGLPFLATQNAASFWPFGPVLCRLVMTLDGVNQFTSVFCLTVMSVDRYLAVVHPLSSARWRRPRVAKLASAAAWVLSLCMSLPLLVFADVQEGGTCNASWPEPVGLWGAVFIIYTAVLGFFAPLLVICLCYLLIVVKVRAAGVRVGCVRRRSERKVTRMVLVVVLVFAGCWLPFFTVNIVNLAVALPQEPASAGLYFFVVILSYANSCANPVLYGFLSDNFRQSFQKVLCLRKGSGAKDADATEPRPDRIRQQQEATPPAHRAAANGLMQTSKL
T4 sequence (P14416 whole entry): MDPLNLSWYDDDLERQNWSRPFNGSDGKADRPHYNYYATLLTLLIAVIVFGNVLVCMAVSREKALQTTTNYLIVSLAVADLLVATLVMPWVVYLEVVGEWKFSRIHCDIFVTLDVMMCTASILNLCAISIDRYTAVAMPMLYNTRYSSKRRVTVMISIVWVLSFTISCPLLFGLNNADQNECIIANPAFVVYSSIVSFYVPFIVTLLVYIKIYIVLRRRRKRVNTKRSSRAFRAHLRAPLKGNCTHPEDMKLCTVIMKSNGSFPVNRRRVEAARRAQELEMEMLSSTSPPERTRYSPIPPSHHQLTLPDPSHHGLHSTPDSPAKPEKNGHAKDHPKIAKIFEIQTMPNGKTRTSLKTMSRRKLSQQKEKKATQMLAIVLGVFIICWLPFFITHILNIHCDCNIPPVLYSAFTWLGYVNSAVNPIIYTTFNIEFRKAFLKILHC
T5 sequence (P32745 whole entry): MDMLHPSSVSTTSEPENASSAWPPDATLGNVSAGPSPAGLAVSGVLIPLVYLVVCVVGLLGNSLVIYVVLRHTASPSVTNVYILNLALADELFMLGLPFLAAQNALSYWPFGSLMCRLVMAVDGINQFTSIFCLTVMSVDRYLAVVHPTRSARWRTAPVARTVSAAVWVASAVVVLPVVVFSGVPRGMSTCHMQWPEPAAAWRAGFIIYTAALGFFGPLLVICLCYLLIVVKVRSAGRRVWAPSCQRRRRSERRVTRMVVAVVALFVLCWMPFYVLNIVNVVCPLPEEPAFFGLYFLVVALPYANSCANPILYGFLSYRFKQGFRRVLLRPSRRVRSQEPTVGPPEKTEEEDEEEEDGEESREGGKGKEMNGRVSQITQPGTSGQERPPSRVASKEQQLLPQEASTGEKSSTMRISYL
T1 sequence (P30872 whole entry): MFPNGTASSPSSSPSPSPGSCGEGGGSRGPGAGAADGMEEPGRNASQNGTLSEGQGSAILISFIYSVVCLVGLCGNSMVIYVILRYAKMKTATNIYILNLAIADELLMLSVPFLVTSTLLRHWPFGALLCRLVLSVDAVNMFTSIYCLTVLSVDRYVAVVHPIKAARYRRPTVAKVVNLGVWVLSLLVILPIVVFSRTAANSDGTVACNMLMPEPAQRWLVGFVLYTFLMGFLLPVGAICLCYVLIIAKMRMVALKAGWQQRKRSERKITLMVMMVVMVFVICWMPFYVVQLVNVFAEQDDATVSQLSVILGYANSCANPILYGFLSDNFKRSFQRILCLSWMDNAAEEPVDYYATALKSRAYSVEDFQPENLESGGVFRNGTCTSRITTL
T3 sequence (P30874 whole entry): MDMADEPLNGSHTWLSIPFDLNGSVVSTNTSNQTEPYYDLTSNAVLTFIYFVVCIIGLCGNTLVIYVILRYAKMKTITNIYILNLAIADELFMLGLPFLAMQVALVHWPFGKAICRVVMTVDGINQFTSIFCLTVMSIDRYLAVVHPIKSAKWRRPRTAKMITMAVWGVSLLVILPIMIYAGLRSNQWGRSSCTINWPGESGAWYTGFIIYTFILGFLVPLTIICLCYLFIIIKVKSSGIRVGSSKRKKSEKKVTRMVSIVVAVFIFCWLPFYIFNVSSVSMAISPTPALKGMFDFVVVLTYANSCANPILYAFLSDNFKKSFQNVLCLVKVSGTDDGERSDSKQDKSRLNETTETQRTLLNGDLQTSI
T3 sequence (P14416 whole entry): as the sequence (P14416 whole entry) above
T2 sequence (P30874 whole entry): as the sequence (P30874 whole entry) above

CCCN1C[C@H](CSCC(=O)NCCCC[C@@H](NC(=O)CSC[C@@H]2C[C@@H]3c4cccc5[nH]cc(c45)C[C@H]3N(CCC)C2)C(=O)N[C@H]2CSSC[C@@H](C(=O)N[C@H](C(N)=O)[C@@H](C)O)NC(=O)[C@H](CC)NC(=O)[C@H](CCCCN)NC(=O)[C@@H](Cc3c[nH]c4ccccc34)NC(=O)[C@H](Cc3ccc(O)cc3)NC2=O)C[C@@H]2c3cccc4[nH]cc(c34)C[C@H]21 [Example 1, Dop2-DLys(Dop2)-cyclo[Cys-Tyr-DTrp-Lys-Abu-Cys]-Thr-NH2]
Ki [1]: 843 nM
Ki [2]: 0.03 nM
IC50 [3]: 0.02 nM
IC50 [4]: 0.02 nM
Ki [5]: 160 nM
Ki [6]: 41.5 nM

From US20110065632A1, “PHARMACEUTICAL COMPOSITIONS OF SOMATOSTATIN-DOPAMINE CONJUGATES” (priority 2008, published 2011)
